The conditions of data set [1]: rodents; cited from earlier work.
The conditions of data set [2]: cited from earlier work.
Data set [3] deals with HIV-1. In words: HIV viral load in patients sensitized and rechallenged topically. The data set is classed as in vivo, human. From the text: As examples of the HIV viral load reducing effects of the subject compositions, two patients were sensitized with 0.400% diphenylcyclopropenone in a vehicle consisting of equal parts of polyoxysorbitan 20 monooleate and isopropyl myristate and subsequently rechallenged with 0.100% diphenylcyclopropenone in the same vehicle two weeks, four weeks and eight weeks later.

In the case of `CC(C)=O` [Acetone], the LD/50 in data set [1] is 10.7 mg/kg. The “toxic effects with repeated human use” value in data set [2] was “epidermal erythema, dryness, headache, bronchial irritation, CNS effects including fatigue and excitement”.

Regarding `O=c1c(-c2ccccc2)c1-c1ccccc1` [diphenylcyclopropenone], the “HIV-1 RNA Copies/1.0 ml Plasma” value in data set [3] (Patient #1, Baseline) is 400 Copies Copies/1.0 ml Plasma; in data set [3] (Patient #1, Eight Weeks, sensitized 0.400%, rechallenged 0.100% topically), 79 Copies/1.0 ml Plasma; in data set [3] (Patient #1, Four Weeks, sensitized 0.400%, rechallenged 0.100% topically) it was 60 Copies/1.0 ml Plasma; in data set [3] (Patient #1, Two Weeks, sensitized 0.400%, rechallenged 0.100% topically) it was 118 Copies/1.0 ml Plasma; in data set [3] (Patient #2, Baseline), 440 Copies/1.0 ml Plasma; in data set [3] (Patient #2, Eight Weeks, sensitized 0.400%, rechallenged 0.100% topically), 351 Copies/1.0 ml Plasma.

The record behind these values is US20020128326A1, “TOPICAL IMMUNOMODULATING COMPOSITIONS FOR TREATMENT OF AIDS, HEPATITIS B&C, OTHER INFECTIOUS DISEASES, AND CANCER” (priority 1998, published 2002).
